From patent US6489315B1, “Cyclic compounds, their production and use” (Takeda Chemical Industries, Ltd., priority 1995, dated 2002) come the findings set out here.

Structures are written as SMILES.

`Cc1ccc(-c2c3n(c(=O)c4ncccc24)CC(O)CN(Cc2cc(C(F)(F)F)cc(C(F)(F)F)c2)C3=O)cc1` (racemic) [Example 25, (+/−)-7-[3,5-Bis(trifluoromethyl)benzyl]-6,7,8,9,10,12-hexahydro-9-hydroxy-5-(4-methylphenyl)-6,12-dioxo[1,4]diazepino [2,1-g][1,7]naphthyridine] came in with a melting point of 282 to 283 °C.
Turning to `COc1cc(CN2CCOc3nccc(-c4ccccc4)c3C2=O)cc(OC)c1OC` [Example 64, 2,3,4,5-Tetrahydro-5-oxo-6-phenyl-4-(3,4,5-trimethoxybenzyl)pyrido[3,2-f][1,4]oxazepine], the melting point lay in the range of 177 to 179 °C.
For the compound `CCN1CCN(Cc2cc(C(F)(F)F)cc(C(F)(F)F)c2)C(=O)c2c(ncc(C)c2-c2ccccc2)C1=O` [Example 53, 6-[3,5-Bis(trifluoromethyl)benzyl]-9-ethyl-5,6,7,8,9,10-hexahydro-3-methyl-5,10-dioxo-4-phenylpyrido[2,3-f][1,4]diazocine], the melting point was 228 to 229 °C.
In the case of `Cc1ccc(-c2c3n(c(=O)c4ncccc24)CCCN(Cc2cc(C(F)(F)F)cc(C(F)(F)F)c2)C3=O)cc1` [Example 2, 7-[3,5-Bis(trifluoromethyl)benzyl]-6,7,8,9,10,12-hexahydro-5-(4-methylphenyl)-6,12-dioxo[1,4]diazepino[2,1-g][1,7]naphthyridine] it was 194 to 195 °C; in that of `Cc1cc(-c2ccccc2)c2c(n1)OCCN(Cc1cc(C(F)(F)F)cc(C(F)(F)F)c1)C2=O` [Example 33, 4-[3,5-Bis(trifluoromethyl)benzyl)-2,3,4,5-tetrahydro-8-methyl-5-oxo-6-phenylpyrido[3,2-f][1,4]oxazepine], 151 to 153 °C.
In the case of `O=C1c2c(-c3ccccc3)ccnc2OCCN1Cc1ccc(Cl)c(Cl)c1` [Example 65, 4-(3,4-Dichlorobenzyl)-2,3,4,5-tetrahydro-5-oxo-6-phenylpyrido[3,2-f][1,4]oxazepine] it was 189 to 192 °C.
In the case of `CN(C)Cc1cc(-c2ccccc2)c2c(n1)OCCN(Cc1cc(C(F)(F)F)cc(C(F)(F)F)c1)C2=O` [Example 45, 4-[3,5-Bis(trifluoromethyl)benzyl]-8-dimethylaminomethyl-2,3,4,5-tetrahydro-5-oxo-6-phenylpyrido[3,2-f][1,4]oxazepine], the melting point was in the range of 186 to 188 °C.
For `CSCc1cc(-c2ccccc2)c2c(n1)OCCN(Cc1cc(C(F)(F)F)cc(C(F)(F)F)c1)C2=O` [Example 42, 4-[3,5-Bis(trifluoromethyl)benzyl]-2,3,4,5-tetrahydro-8-methylthiomethyl-5-oxo-6-phenylpyrido[3,2-f][1,4]oxazepine], the melting point fell in the range of 165 to 166 °C.
For `Cc1ccc(-c2c3n(c(=O)c4ncccc24)C[C@@H](C)CN(Cc2cc(C(F)(F)F)cc(C(F)(F)F)c2)C3=O)cc1` [Example 14, (9S)-7-(3,5-Bis(trifluoromethyl)benzyl]-6,7,8,9,10,12-hexahydro-9-methyl-5-(4-methylphenyl)-6,12-dioxo[1,4]diazepino[2,1-g][1,7]naphthyridine], the melting point lay in the range of 179 to 180 °C.

Usually melting point stands for the temperature, or range, at which the solid turns liquid.
